{"source": "patent US20230310436A1", "about": "“COMBINATION THERAPY FOR CANCERS WITH KRAS MUTATION” (COTHERA BIOSCIENCE, INC., priority 2019, published 2023)", "system": "KRAS^G12C NSCLC CDX model H358", "assay_type": "in vivo"}
{"smiles": "N.N.[Cl][Pt][Cl]", "note": "[cisplatin]", "values": [{"measurement": "Mean Tumor Volume, study day 0", "setting": "Table 11A, day 0, mg/kg: osimertinib 10, cobimetinib 5, TAK-733 10, palbociclib 20 daily p.o., cetuximab 1, cisplatin 4 per week i.p., 21 days, then 7 days off", "value": "164.52 ± 22.82", "unit": "mm^3"}, {"measurement": "Mean Tumor Volume, study day 3", "setting": "Table 11A, day 3, mg/kg: osimertinib 10, cobimetinib 5, TAK-733 10, palbociclib 20 daily p.o., cetuximab 1, cisplatin 4 per week i.p., 21 days, then 7 days off", "value": "249.59 ± 33.58", "unit": "mm^3"}, {"measurement": "Mean Tumor Volume, study day 7", "setting": "Table 11A, day 7, mg/kg: osimertinib 10, cobimetinib 5, TAK-733 10, palbociclib 20 daily p.o., cetuximab 1, cisplatin 4 per week i.p., 21 days, then 7 days off", "value": "438.18 ± 93.81", "unit": "mm^3"}, {"measurement": "Mean Tumor Volume, study day 10", "setting": "Table 11A, day 10, mg/kg: osimertinib 10, cobimetinib 5, TAK-733 10, palbociclib 20 daily p.o., cetuximab 1, cisplatin 4 per week i.p., 21 days, then 7 days off", "value": "489.05 ± 102.01", "unit": "mm^3"}, {"measurement": "Mean Tumor Volume, study day 14", "setting": "Table 11A, day 14, mg/kg: osimertinib 10, cobimetinib 5, TAK-733 10, palbociclib 20 daily p.o., cetuximab 1, cisplatin 4 per week i.p., 21 days, then 7 days off", "value": "618.71 ± 145.67", "unit": "mm^3"}, {"measurement": "Mean Tumor Volume, study day 17", "setting": "Table 11A, day 17, mg/kg: osimertinib 10, cobimetinib 5, TAK-733 10, palbociclib 20 daily p.o., cetuximab 1, cisplatin 4 per week i.p., 21 days, then 7 days off", "value": "685.80 ± 180.07", "unit": "mm^3"}, {"measurement": "Mean Tumor Volume, study day 21", "setting": "Table 11A, day 21, mg/kg: osimertinib 10, cobimetinib 5, TAK-733 10, palbociclib 20 daily p.o., cetuximab 1, cisplatin 4 per week i.p., 21 days, then 7 days off", "value": "828.32 ± 220.11", "unit": "mm^3"}, {"measurement": "Mean Tumor Volume, study day 24", "setting": "Table 11A, day 24, mg/kg: osimertinib 10, cobimetinib 5, TAK-733 10, palbociclib 20 daily p.o., cetuximab 1, cisplatin 4 per week i.p., 21 days, then 7 days off", "value": "958.50 ± 207.93", "unit": "mm^3"}, {"measurement": "Mean Tumor Volume, study day 28", "setting": "Table 11A, day 28, mg/kg: osimertinib 10, cobimetinib 5, TAK-733 10, palbociclib 20 daily p.o., cetuximab 1, cisplatin 4 per week i.p., 21 days, then 7 days off", "value": "1079.33 ± 275.10", "unit": "mm^3"}, {"measurement": "Tumor volume (mm^3) day 0", "setting": "Table 11C, day 0, doses as Table 11A (TAK-733 10 mg/kg)", "value": "164.52 ± 22.82", "unit": "mm^3"}, {"measurement": "Tumor volume (mm^3) day 28", "setting": "Table 11C, day 28, doses as Table 11A (TAK-733 10 mg/kg)", "value": "1079.33 ± 275.10", "unit": "mm^3"}, {"measurement": "TGI %", "setting": "Table 11C, day 28 vs day 0, doses as Table 11A (TAK-733 10 mg/kg)", "value": "−10.2", "unit": "%"}, {"measurement": "tumor growth inhibition, in words", "setting": "Tables 11A and 11C, cisplatin at 4 mg/kg", "value": "no effect on inhibiting tumor growth"}]}
